{"source": "patent US9429574B2", "about": "“Cancer therapies and methods” (priority 2011, dated 2016)", "assay_type_in_all_cases": "cell-based, human", "key": {"[1]": {"test_system": "eIF2alpha phosphorylation", "test": "Western blot of eIF2alpha phosphorylation upon thapsigargin ER stress induction", "conditions": "three hour TG exposure", "procedure": "Cells were harvested at 50-70% confluency, pelleted by centrifugation, and dissolved in RIPA buffer (10 mM Tris/HCl (pH 7.5), 1 mM EDTA, 1% Triton X-100, 0.1% SDS, 0.1% sodium deoxycholate, 100 mM NaCl) supplemented with protease inhibitors (2 mM PMSF and 1× Complete Mini, Roche). Supernatants were collected, protein concentrations were determined using the BCA assay (Pierce/Thermo Scientific), and proteins were separated in a 10% SDS-polyacrylamide gel. Western blotting followed standard protocols using nitrocellulose membranes (Amersham/GE Healthcare). Signal intensities were analyzed with ImageJ (http://rsb.info.nih.gov/ij/).\nAntibodies used were: anti-BAF47 (SMARCB1/SNF5; BD Biosciences, San Diego, Calif.), anti-phospho-eIF2alpha (119A11; Cell Signaling), anti-beta actin-HRP (Abcam, Cambridge, UK).\nThe CHLA-02-ATRT cell line was obtained from ATCC and kept in neurosphere medium (DMEM/F12 (1:1) with Glutamax, B27, penicillin (100 units/mL), streptomycin (100 μg/mL; all from Invitrogen), HEPES (10 mmol/L), Partricin (0.5 μg/mL, Biochrom); insulin (20 μg/mL; Sigma Aldrich), recombinant human epidermal growth factor (EGF; 20 ng/mL), and rhFGFbasic (20 ng/mL; PAN Biotech)). The human malignant rhabdoid tumor cell line LM (provided by Rupert Handgretinger, Tuebingen, Germany) was kept according to Versteege et al. (Nature 1998). DAOY medulloblastoma cells (provided by Michael Grotzer, Zurich, Switzerland) were kept in EMEM (PAA) supplemented with 10% FBS (Biochrom), 2 mM glutamine, 100 units/mL Penicillin/Streptomycin (Invitrogen), and 2.5 μg/mL Amphotericin B (PAA). Hs683 glioma cell lines (provided by Matthias Simon, Bonn, Germany) were kept in DAOY medium with 1 mM sodium pyruvate, MEM non-essential amino acids, and MEM vitamin solution (all from Invitrogen). SW1783 glioblastoma cells (provided by Matthias Simon, Bonn, Germany) and BT12 AT/RT cells (provided by Michael Grotzer, Zurich, Switzerland) were kept in DMEM (1 g/l glucose) supplemented with 10% FBS (Biochrom), 2 mM glutamine, 100 units/ml Penicillin/Streptomycin (Invitrogen) and 2.5 μg/ml Amphotericin B (PAA).\nMCF7-SNF5-KD#73 cells (Xu et al., 2010) were cultured in DMEM (4.5 g/L glucose, Invitrogen), 10% FBS (Tet System Approved, Clontech), 2 mM glutamine, and 100 units/mL Penicillin/Streptomycin (Invitrogen). For the knock-down of SMARCB1, tetracycline (1 μg/mL) was added on day 1 and 3, and cells harvested at day 4. At day 4, cells were treated with DTT (5 mM) or Thapsigargin (5 μM). 786-O and A-498 cells (both from Angelika Toelle, Charité Berlin, Germany), HepG2 cells (from Peter Nilsson-Ehle, Lund University, Sweden), and G401 (ATCC) were kept in RPMI1640 (PAA) supplemented with 10% FBS (Biochrom), 2 mM glutamine, 100 units/mL Penicillin/Streptomycin (Invitrogen), and 2.5 μg/mL Amphotericin B (PAA). A-204 (ATCC) were grown in McCoy's 5a modified medium supplemented with 10% FBS (Biochrom), 100 units/mL Penicillin/Streptomycin (Invitrogen), and 2.5 μg/mL Amphotericin B (PAA). All cells were kept in T75 tissue culture flasks (Techno Plastic Products)."}, "MCF7-SNF5-KD#73 cells": {"test_system": "MCF7-SNF5-KD#73 cells", "test": "Apoptosis assay (Annexin V/7AAD flow cytometry) in tetracycline-induced SMARCB1 knock-down MCF7 cells", "conditions": "10 nM for 12 hours; Tet-induced SMARCB1 knock-down vs non-induced MCF7 cells", "procedure": "500,000 MCF7-SNF5-KD#73 cells (Xu et al., 2010) were plated into T75 tissue culture flasks (Techno Plastic Products). For knockdown experiments, tetracycline (1 μg/mL) was added on day 1 and day 3. In case of Bortezomib (BTZ)-treated cells, the drug (Santa Cruz Biotechnology, final concentration 10 nM) was added for 12 hours on day 4 (at 70-85% confluency).\n(§1) Similarly, G401, A498, 786-O, BT12, SW1783, and DAOY cells were plated into 6-well-plates (200,000 cells per well) and grown for 24 hours before 10 nM BTZ, 30 nM Carfilzomib (CFZ, from Active Biochemicals Co.), or DMSO as vehicle control was added to the cell culture media for another 24 hours. Subsequently, cells were carefully washed with PBS and dissociated by trypsinization. Aliquots of single cell suspensions containing 1×10^5 cells in 100 μL PBS were stained with AnnexinV-APC and 7AAD according to the manufacturer's instructions (BD Biosciences) for 15 min at RT. Subsequently, 400 μL of AnnexinV binding buffer was added (10 mM Hepes, 140 mM NaCl and 2.5 mM CaCl2), cell suspensions were placed on ice and immediately analyzed with a FACSCalibur flow cytometer (BD Biosciences). The data analysis was performed using the FlowJo software (Tree Star). For statistical analyses, an unpaired t-test was conducted using Prism 5.0 (GraphPad)."}, "G401 cells": {"test_system": "G401 cells", "test": "Apoptosis assay (Annexin V/7AAD flow cytometry) in kidney MRT cell line", "conditions": "G401 vs DMSO and vs SMARCB1-positive cell lines", "procedure": "as §1"}, "BT12 cells": {"test_system": "BT12 cells", "test": "Apoptosis assay (Annexin V/7AAD flow cytometry) in brain AT/RT cell line", "conditions": "BT12 vs DMSO and vs SMARCB1-positive cell lines", "procedure": "as §1"}, "[2]": {"conditions": "10 nM BTZ for 24 hours, listed as BTZ"}}, "note": "Entries after “also recorded” stand apart in the source; their conditions may differ.", "data": [{"smiles": "C/C=C(/C)C(=O)O[C@H]1C(C)=C2[C@H]([C@@H]1OC(=O)CCCCCCC)[C@@](C)(OC(C)=O)C[C@H](OC(=O)CCC)[C@@]1(O)[C@H]2OC(=O)[C@@]1(C)O", "note": "[TG, Thapsigargin]", "values": [{"measurement": "Fold-change of β-actin-normalized phosphorylated eIF2alpha signal intensities between TSG-treated and untreated cells", "setting": "[1]; 786-O (SMARCB1-positive renal cell carcinoma)", "value": 0.60}, {"measurement": "Fold-change of β-actin-normalized phosphorylated eIF2alpha signal intensities between TSG-treated and untreated cells", "setting": "[1]; A-204 (MRT, muscle origin, lacking SMARCB1)", "value": 1.39}, {"measurement": "Fold-change of β-actin-normalized phosphorylated eIF2alpha signal intensities between TSG-treated and untreated cells", "setting": "[1]; A-498 (SMARCB1-positive renal cell carcinoma)", "value": 1.12}, {"measurement": "Fold-change of β-actin-normalized phosphorylated eIF2alpha signal intensities between TSG-treated and untreated cells", "setting": "[1]; CHLA2 (AT/RT, lacking SMARCB1)", "value": 5.89}, {"measurement": "Fold-change of β-actin-normalized phosphorylated eIF2alpha signal intensities between TSG-treated and untreated cells", "setting": "[1]; DAOY (SMARCB1-positive brain tumor)", "value": 0.77}, {"measurement": "Fold-change of β-actin-normalized phosphorylated eIF2alpha signal intensities between TSG-treated and untreated cells", "setting": "[1]; G401 (MRT, kidney origin, lacking SMARCB1)", "value": 2.49}, {"measurement": "Fold-change of β-actin-normalized phosphorylated eIF2alpha signal intensities between TSG-treated and untreated cells", "setting": "[1]; HepG2 (SMARCB1-positive hepatocellular carcinoma)", "value": 0.56}, {"measurement": "Fold-change of β-actin-normalized phosphorylated eIF2alpha signal intensities between TSG-treated and untreated cells", "setting": "[1]; Hs683 (SMARCB1-positive brain tumor)", "value": 0.81}, {"measurement": "Fold-change of β-actin-normalized phosphorylated eIF2alpha signal intensities between TSG-treated and untreated cells", "setting": "[1]; LM (MRT, liver origin, lacking SMARCB1)", "value": 1.27}, {"measurement": "Fold-change of β-actin-normalized phosphorylated eIF2alpha signal intensities between TSG-treated and untreated cells", "setting": "[1]; SW1783 (SMARCB1-positive brain tumor)", "value": 0.75}]}, {"smiles": "CC(C)C[C@H](NC(=O)[C@H](Cc1ccccc1)NC(=O)c1cnccn1)B(O)O", "note": "[Bortezomib, [(1R)-3-methyl-1-({(2S)-3-phenyl-2-[(pyrazin-2-ylcarbonyl)-amino]propanoyl}amino)butyl]boronic acid]", "values": [{"measurement": "Apoptosis (Annexin V-positive and 7AAD-negative cells)", "setting": "MCF7-SNF5-KD#73 cells", "value": "increased apoptosis"}, {"measurement": "Apoptosis (Annexin V-positive and 7AAD-negative cells)", "setting": "G401 cells; 10 nM BTZ for 24 hours", "value": "increased apoptosis"}, {"measurement": "Apoptosis (Annexin V-positive and 7AAD-negative cells)", "setting": "G401 cells; [2]", "value": "highest apoptosis"}, {"measurement": "Apoptosis (Annexin V-positive and 7AAD-negative cells)", "setting": "BT12 cells; 10 nM BTZ for 24 hours", "value": "increased apoptosis"}, {"measurement": "Apoptosis (Annexin V-positive and 7AAD-negative cells)", "setting": "BT12 cells; [2]", "value": "highest apoptosis"}]}, {"smiles": "CC(C)C[C@H](NC(=O)[C@H](CCc1ccccc1)NC(=O)CN1CCOCC1)C(=O)N[C@@H](Cc1ccccc1)C(=O)N[C@@H](CC(C)C)C(=O)[C@@]1(C)CO1", "note": "[Carfilzomib]", "values": [{"measurement": "Apoptosis (Annexin V-positive and 7AAD-negative cells)", "setting": "G401 cells; 30 nM CFZ for 24 hours", "value": "highest apoptosis; also recorded: increased apoptosis"}, {"measurement": "Apoptosis (Annexin V-positive and 7AAD-negative cells)", "setting": "BT12 cells; 30 nM CFZ for 24 hours", "value": "highest apoptosis; also recorded: increased apoptosis"}]}]}
